In patent publication US12128010B2, “Semifluorinated compounds and their compositions” (NOVALIQ GMBH, priority 2015, dated 2024):
Entries after “also recorded” stand apart in the source; their conditions may differ.

What was measured:
[1] = Differential Scanning Calorimetry of mixtures; type: physicochemical
Description: Differential Scanning calorimetry (DSC 1, Mettler Toledo, Greifensee, Switzerland) is used to characterize structure and phase behavior of mixtures of CF3(CF2)5—CH(CH3)—(CH2)5—CH3 and CF3(CF2)5(CH2)7CH3. DSC was employed to obtain data on transitions by temperature rising scans with heating rate of 1° C./min. Sealed standard aluminum crucibles (40 μl, Mettler Toledo) were used.

[2] = Evaporation time of mixtures; type: physicochemical; details: FIG. 1, in words
Description: The evaporation time of mixtures of the semifluorinated alkane CF3(CF2)5(CH2)7CH3 and CF3(CF2)5—CH(CH3)—(CH2)5—CH3 was evaluated. A droplet of 10 μL volume of each mixture was placed on a glass surface at room temperature. Time until evaporation was recorded by video-monitoring.

[3] = Refractive index of mixtures; type: physicochemical; details: FIG. 2, in words
Description: The refractive index of the mixtures was also determined. For topically applied ophthalmic compositions, the refractive index of the composition should preferably similar, or adapted to that of the eye and lens, for instance as close to that of physiological tear fluid as possible. If the refractive index of a composition is not similar, when applied to the surface of the eye, a patient may experience blurring or impaired vision. […] By varying the amount of this semifluorinated alkane in the mixture, it may also be feasible to adapt the composition to the requirements of the intended ophthalmic use, for instance adapting to a patient with an altered tear fluid composition and refractive index, due to an eye condition and/or age.

Rabbit corneas = assay: Ex Vivo Eye Irritation Test (EVEIT), corneal healing
Description: Anim., 2008 (36) p 25-32; and N. Schrage et al, Graefes Arch Clin Exp Ophthalmol 2012 (250), 1330-1340).
Method. Rabbit corneas were obtained and placed in an artificial anterior ocular chamber which was gently filled with serum-free minimal essential medium (Eagle's MEM) containing Earle's salts and HEPES buffer for nutrition. The medium was contstantly replenished by a micropump to imitate the physiological condition of the eye. The culture chambers were held at 32° C. under normal air without supplementary CO2 and >95% relative humidity. Five corneas per test substance (n=5) were used except for the postive control with which two corneas (n=2) were tested.
After 12 h of stabilization in the culture chamber, the corneas were evaluated by microscopy and corneas with intact epithelium and without opacities were selected. Four small abrasions (2.3-4.3 mm^2) were applied to the surface of the selected corneas with a cornea drill. All defects were monitored by fluorescein sodium staining (0.17% aq. solution) and microscopy.
The test substances were administered one hour after induction of the corneal erosion and were applied six times daily onto the apex of the corneas (30-50 μL every four hours). A soft-tipped cannula, with continuous suction was placed on the lowest part of the corneoscleral region within the culturing chamber to remove any excess fluid. Experiments were terminated after 3 days of application. Biomicroscopic images of the corneas were taken daily to document the corneal healing process using a phase-contrast microscope integrated camera (KY-F1030U, JVC, (Bad Vilbel, DE) mounted on a Z16 APO Microscope (Wetzlar, DE)). All defects were monitored by fluorescein sodium stains (0.17% aq. solution) with yellow green fluorescence indicating the areas of epithelial defects. Erosion sizes were determined using a software tool of the microscope (DISKUS). At the end of the 3 days, the experiment was terminated and all corneas were fixed in 3.7% formaldehyde and stained with a hematoxylin-eosin dye for microscopic evaluation. To monitor the metabolic activity of the cornea, glucose and lactate concentrations were photometrically quantified in the outflow medium from the artificial anterior chambers.

[4] = hematoxylin-eosin stained corneas after 3 days of application

Molecule: CCCCCCC(C)C(F)(F)C(F)(F)C(F)(F)C(F)(F)C(F)(F)C(F)(F)F (centres unmarked) [CF3—(CF2)5—CH(CH3)—(CH2)5—CH3, 2-perfluorohexyloctane]
- effect on melting enthalpy when present in a mixture with F6H8 ([1]; in words): decreased
- effect on melting temperature when present in a mixture with F6H8 ([1]; in words): significant reduction in the melting temperature
- effect of increasing percentage on evaporation time of the mixtures [2]: decreases the evaporation time
- effect of increased content on refractive index of the mixtures [3]: increasing refractive index value

Molecule: CCCCCCCCC(F)(F)C(F)(F)C(F)(F)C(F)(F)C(F)(F)C(F)(F)F [Composition 0, 1-perfluorohexyloctane]
- Low temperature transition Endset ([1]; DSC, heating rate 1° C./min): −38.32 °C
- Low temperature transition Onset ([1]; DSC, heating rate 1° C./min): −45.47 °C
- Low temperature transition Peak ([1]; DSC, heating rate 1° C./min): −40.37 °C
- Low temperature transition ΔH ([1]; DSC, heating rate 1° C./min): -0.69 J/g
- Melting transition Endset ([1]; DSC, heating rate 1° C./min): −2.14 °C
- Melting transition Onset ([1]; DSC, heating rate 1° C./min): −6.33 °C
- Melting transition Peak ([1]; DSC, heating rate 1° C./min): −4.53 °C
- Melting transition ΔH ([1]; DSC, heating rate 1° C./min, label = wt % CF3—(CF2)5—CH(CH3)—(CH2)5—CH3 in mixture with CF3(CF2)5(CH2)7CH3): -36.57 J/g

Molecule: benzalkonium chloride [0.01% BAC]
- Corneal Erosion Size, Mean (SD) (Rabbit corneas; Day 0 (before application)): 11.57 (0.86) mm^2
- Corneal Erosion Size, Mean (SD) (Rabbit corneas; Day 1, applied six times daily, 30-50 μL): 5.91 (0.28) mm^2
- Corneal Erosion Size, Mean (SD) (Rabbit corneas; Day 2, applied six times daily, 30-50 μL): 8.74 (7.6) mm^2
- Corneal Erosion Size, Mean (SD) (Rabbit corneas; Day 3, applied six times daily, 30-50 μL): 17.46 (6.43) mm^2
- Day 3 Histological Observations: Descemet membrane and endothelium (Rabbit corneas; [4]): Descemet membrane is present with intact endothelium
- Day 3 Histological Observations: epithelium, stroma, corneal structure (Rabbit corneas; [4]): Severe alterations of the superficial cornea with disintegration of; also recorded: Reduced staining of background substance indicating chemical
- Day 3 Histological Observations: keratocytes (Rabbit corneas; [4]): Severe reduction in number of keratocyte cells which also appear
- course of the induced epithelial erosions/lesions (Rabbit corneas; over the three days of the experiment, in words): progressive increase
